Patent publication US9617271B2, “Triazolo compounds” (Hoffmann-La Roche Inc., priority 2012, dated 2017)

These compounds were tested against human PDE10A (Homo sapiens (Human), UniProt Q9Y233) (assay: human PDE10A full length assay ([3H]-cGMP SPA)). Settings: human PDE10A full length enzyme, 50 nM cGMP + 50 nM [3H]-cGMP, 20 minutes at room temperature; read-out: PDE10A inhibition IC50.
Type: biochemical
Protocol: The human PDE10A full length assay was performed in 96-well micro titer plates. The reaction mixture of 50 μl contained 20 mM HEPES pH=7.5/10 mM MgCl2/0.05 mg/ml BSA (Sigma cat. #A-7906), 50 nM cGMP (Sigma, cat. #G6129) and 50 nM [3H]-cGMP (GE Healthcare, cat. #TRK392 S.A. 13.2 Ci/mmol), 3.75 ng/well PDE10A enzyme (Enzo Life Science, Lausen, Switzerland cat #SE-534) with or without a specific test compound. A range of concentrations of the potential inhibitor was used to generate data for calculating the concentration of inhibitor resulting in 50% of the effect (e.g. IC50, the concentration of the competitor inhibiting PDE10A activity by 50%). Non-specific activity was tested without the enzyme. The reaction was initiated by the addition of the substrate solution (cGMP and [3H]-cGMP) and allowed to progress for 20 minutes at room temperature. The reaction was terminated by adding 25 μl of YSi-SPA scintillation beads (GE Healthcare, cat. #RPNQ0150) in 18 mM zinc sulphate solution (stop reagent). After 1 h under shaking, the plate was centrifuged one minute at 170 g to allow beads to settle. Afterwards, radioactive counts were measured on a Perkin Elmer TopCount Scintillation plate reader.

human PDE10A, sequence (Q9Y233 other isoform, or with tags, fused parts or gaps): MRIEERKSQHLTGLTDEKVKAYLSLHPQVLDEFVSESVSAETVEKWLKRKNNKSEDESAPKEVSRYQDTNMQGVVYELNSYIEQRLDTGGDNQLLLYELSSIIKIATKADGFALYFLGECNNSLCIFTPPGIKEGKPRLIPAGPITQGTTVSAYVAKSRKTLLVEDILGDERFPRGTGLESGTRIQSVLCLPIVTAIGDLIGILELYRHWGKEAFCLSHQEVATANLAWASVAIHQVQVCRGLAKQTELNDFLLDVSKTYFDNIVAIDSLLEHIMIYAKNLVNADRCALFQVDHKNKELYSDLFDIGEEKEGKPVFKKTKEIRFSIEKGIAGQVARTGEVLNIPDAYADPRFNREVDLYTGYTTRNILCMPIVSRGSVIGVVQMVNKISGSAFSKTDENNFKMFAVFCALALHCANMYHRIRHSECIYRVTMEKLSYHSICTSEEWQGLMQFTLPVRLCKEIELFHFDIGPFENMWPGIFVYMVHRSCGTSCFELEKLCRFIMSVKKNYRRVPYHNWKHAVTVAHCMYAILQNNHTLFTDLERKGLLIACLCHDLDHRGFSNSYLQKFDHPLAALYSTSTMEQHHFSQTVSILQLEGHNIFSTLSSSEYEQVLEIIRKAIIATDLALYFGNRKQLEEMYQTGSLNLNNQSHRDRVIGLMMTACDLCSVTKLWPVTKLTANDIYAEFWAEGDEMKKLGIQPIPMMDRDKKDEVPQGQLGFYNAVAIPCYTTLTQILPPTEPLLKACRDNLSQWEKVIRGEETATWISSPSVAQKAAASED

Compound	IC50 [nM]
Cc1nn2ccc(CCc3nc(N4CCCC4)nn3C)nc2c1C [Example 53, 2,3-dimethyl-5-(2-(1-methyl-3-(pyrrolidin-1-yl)-1H-1,2,4-triazol-5-yl)ethyl)pyrazolo[1,5-a]pyrimidine]	2.1
CCN(CC)c1nc(CCc2nc(N3CCCC3)nn2C)nn2c(C)c(C)nc12 [Example 35, N,N-Diethyl-6,7-dimethyl-2-(2-(1-methyl-3-(pyrrolidin-1-yl)-1H-1,2,4-triazol-5-yl)ethyl)imidazo[1,2-f][1,2,4]triazin-4-amine]	1.41
Cc1cc(CCc2nc(N3CCCC3)nn2C)nn2c(C)c(C(F)(F)F)nc12 [Example 55, 3,8-Dimethyl-6-(2-(1-methyl-3-(pyrrolidin-1-yl)-1H-1,2,4-triazol-5-yl)ethyl)-2-(trifluoro-methyl)imidazo[1,2-b]pyridazine]	16.8
Cc1nc2c(OC(C)C)cc(/C=C/c3nc(N4CCCC4)nn3C)nn2c1C [Example 26, (E)-8-Isopropoxy-2,3-dimethyl-6-(2-(1-methyl-3-(pyrrolidin-1-yl)-1H-1,2,4-triazol-5-yl)vinyl)imidazo[1,2-b]pyridazine]	0.493
Cc1c(C(F)(F)F)nc2ccc(C#Cc3nc(N4CCCC4)n(C)n3)nn12 [Example 4, 3-Methyl-6-((1-methyl-5-(pyrrolidin-1-yl)-1H-1,2,4-triazol-3-yl)ethynyl)-2-(trifluoromethyl)imidazo[1,2-b]pyridazine]	4

More lines, in order of falling IC50, values ahead:

IC50 [nM]	Compound
9.4	Cc1c(C(F)(F)F)nc2c(OCC(F)(F)F)cc(CCc3nc(N4CCCC4)nn3C)nn12 [Example 63, 3-Methyl-6-(2-(1-methyl-3-(pyrrolidin-1-yl)-1H-1,2,4-triazol-5-yl)ethyl)-8-(2,2,2-trifluoroethoxy)-2-(trifluoromethyl)imidazo[1,2-b]pyridazine]
8	Cc1c(C(F)F)nc2ccc(CCc3nc(N4CCCC4)nn3C)nn12 [Example 8, 2-(Difluoromethyl)-3-methyl-6-(2-(1-methyl-3-(pyrrolidin-1-yl)-1H-1,2,4-triazol-5-yl)ethyl)imidazo[1,2-b]pyridazine]
2	COc1cc(CCc2nc(N3CCCC3)nn2C)nn2c(C)c(C(F)(F)F)nc12 [Example 10, 8-Methoxy-3-methyl-6-(2-(1-methyl-3-(pyrrolidin-1-yl)-1H-1,2,4-triazol-5-yl)ethyl)-2-(trifluoromethyl)imidazo[1,2-b]pyridazine]
1.33	Cc1c(Cl)nc2ccc(C#Cc3nc(N4CCCC4)nn3C)nn12 [Example 38, 2-Chloro-3-methyl-6-((1-methyl-3-(pyrrolidin-1-yl)-1H-1,2,4-triazol-5-yl)ethynyl)-imidazo[1,2-b]pyridazine]
1	Cc1nc2c(C3CC3)cc(C#Cc3nc(N4CCCC4)nn3C)nn2c1C [Example 46, 8-Cyclopropyl-2,3-dimethyl-6-((1-methyl-3-(pyrrolidin-1-yl)-1H-1,2,4-triazol-5-yl)ethynyl)imidazo[1,2-b]pyridazine]
1	Cc1nc2c(C(C)C)cc(C#Cc3nc(N4CCCC4)nn3C)nn2c1C [Example 44, 8-Isopropyl-2,3-dimethyl-6-((1-methyl-3-(pyrrolidin-1-yl)-1H-1,2,4-triazol-5-yl)ethynyl)imidazo[1,2-b]pyridazine]
